Measured values from publication PMC12527173, “Cytotoxic, anti-inflammatory, antioxidant, and anti-glyoxalase-I evaluation of chelating substances: In silico and in vitro study” (PLOS One, 2025).
Where two headings read alike, the source gives them in different places.

What was measured:
[1] = biological target: T1, human recombinant Glo-I enzyme (rhGlo-I) (Homo sapiens, UniProt Q04760); experiment: Glyoxalase-I (Glo-I) enzyme inhibition assay; format: biochemical; settings: for Maximum (descriptive statistics of enzyme inhibition): highest mean inhibition over the tested concentrations; for Maximum (descriptive statistics of enzyme inhibition) / Minimum (descriptive statistics of enzyme inhibition): in % (unit assumed); for IC50: human recombinant Glo-I, triplicates, read-out: IC50 µM ± SD; for Minimum (descriptive statistics of enzyme inhibition): lowest mean inhibition over the tested concentrations
T1 construct: N-terminal Met and 6-His tag (N); purchased R&D Systems; host or cells: E. coli
T1 sequence (Q04760 2-184 limits assumed): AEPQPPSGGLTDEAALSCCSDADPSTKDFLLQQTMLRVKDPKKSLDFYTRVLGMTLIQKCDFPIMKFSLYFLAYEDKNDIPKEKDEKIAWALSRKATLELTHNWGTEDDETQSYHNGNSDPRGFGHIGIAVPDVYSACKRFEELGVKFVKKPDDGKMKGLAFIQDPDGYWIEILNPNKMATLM
Experimental: Solvents and chemicals were procured from Sigma-Aldrich Co. and Acros (ThermoFisher Scientific, New Jersey, USA). […] The enzyme was obtained from R&D Systems® Corporation in the USA. Synthetic compounds were tested for their inhibitory effects on the enzyme using a 10 mM DMSO stock concentration in triplicates. The manufacturer’s protocol from R & D Systems, Inc. in Minneapolis, MN, USA was followed for the in vitro experiments. The reconstituted Glo-I enzyme (0.5 mg/mL) was thawed after being stored at −70°C in sterile deionized water. […] The monitoring was done at a wavelength of 240 nm for 200 seconds at 37°C. The substrate mixture was freshly concocted with a concentration of 100 mM glutathione and 100 mM methylglyoxal (MG) in assay buffer containing 0.5 M sodium phosphate dibasic/monobasic. It was then left undisturbed at room temperature for 15 minutes […]. The selected compounds for investigation are subsequently produced in testing concentration ranges using a 0.1 M solution of sodium phosphate dibasic/monobasic with a pH range of 7–7.2. The blank contained an assay buffer with MG substrate. The test compounds were combined with human recombinant Glo-I (50 µM) in a 96-well plate to determine their kinetic behavior.

[2] = tested on: SW480 colorectal cancer cell line; experiment: SRB cytotoxicity assay, SW480; format: cell-based; settings: Homo sapiens, 72 h incubation, n = 12, read-out: Cytotoxicity (as of %Control) IC50 value SW480
Experimental: (§1) The cancer cell lines were cultured in DMEM supplemented with 10% FBS (Bio Whittaker, Verviers, Belgium), HEPES Buffer (10 mM), gentamicin (50 µg/mL), L-glutamine (100 μg/mL), streptomycin ([…]), penicillin (100 µg/mL), and 4-(2-hydroxyethyl)-1-piperazineethanesulfonic acid (HEPES) Buffer (Sigma, St. Luis, MO, USA). The Sulforhodamine B used was obtained from Santa Cruz Biotechnology, Inc. in Texas, USA. […] Periodontal ligament fibroblasts (PDL) were utilized to assess specific cytotoxicity. Cancer cell lines that have survived offer several benefits. They provide a consistent and uninterrupted source of cells, so bypassing any ethical concerns related to the use of human tissue. Additionally, they are cost-effective. The cytotoxicity levels were assessed using the Sulforhodamine B (SRB) colorimetric assay, provided by Santa Cruz Biotechnology, Inc. in Texas, USA. The Spectro Scan 80D UV-VIS spectrophotometer, manufactured by Sedico Ltd. in Nicosia, Cyprus, was employed for this cytotoxicity screening. The cells were co-incubated with substances or a reference agent at various doses ranging from 5 to 200 μg/mL. […] The reduction in cell viability was analyzed by plotting Dose-response curves and expressing the data as a percentage of the control optical density. The IC50 values were obtained using regression analysis.

[3] = tested on: HCT116 colorectal cancer cell line; experiment: SRB cytotoxicity assay, HCT116; format: cell-based; settings: Homo sapiens, HCT-116, 72 h incubation, n = 12, read-out: Cytotoxicity (as of %Control) IC50 value HCT116
Experimental: as §1

[4] = SRB cytotoxicity assay, normal PDL fibroblasts; format: cell-based; settings: normal periodontal ligament (PDL) fibroblasts, 72 h incubation, 0.1–200 µM range, read-out: Cytotoxicity (as of %Control) IC50 value PDL fibroblasts
Experimental: as §1

[5] = tested on: A549 lung cancer cell line; experiment: SRB cytotoxicity assay, A549; format: cell-based; settings: Homo sapiens, 72 h incubation, n = 12, read-out: Cytotoxicity (as of %Control) IC50 value A549 lung malignancy
Experimental: as §1

[6] = tested on: Human PC3 prostate cancer cell line; experiment: SRB cytotoxicity assay, PC3; format: cell-based; settings: 72 h incubation, n = 12, read-out: Cytotoxicity (as of %Control) IC50 value PC3 prostate malignancy
Experimental: as §1

[7] = tested on: T47D breast cancer cell line; experiment: SRB cytotoxicity assay, T47D; format: cell-based; settings: Homo sapiens, 72 h incubation, n = 12, read-out: Cytotoxicity (as of %Control) IC50 value T47D mammary malignancy
Experimental: as §1

[8] = tested on: HeLa uterine cervix adenocarcinoma cell line; experiment: SRB cytotoxicity assay, HeLa; format: cell-based; settings: Homo sapiens, 72 h incubation, n = 12, read-out: Cytotoxicity (as of %Control) IC50 value Hela cervix malignancy
Experimental: as §1

[9] = tested on: LPS-primed RAW 264.7 murine macrophages (nitrite / iNOS); experiment: Anti-inflammatory (nitrite) determination in LPS-primed macrophages; format: cell-based; settings: Mus musculus, RAW264.7; LPS-primed RAW 264.7; nitrite by Griess; 24 h; n = 12; read-out: iNOS- IC50 value
Experimental: The RAW 264.7 mouse macrophage cell line (ATCC® TIB-71) was cultivated in high glucose DMEM with 10% foetal bovine serum (FBS), 100 U/mL penicillin, 100 μg/mL streptomycin, and 100 μg/mL L-glutamate. The cells were incubated at 37°C in a humidified environment with 95% air and 5% CO2. Confluent macrophages (2 x 10^5/well) were cultured with lipopolysaccharide (LPS; 20 μg/mL; Sigma, St. Luis, MO, USA) and indomethacin (25–200 μg/mL) as the positive control, along with various concentrations (5–200 μg/mL) of treatment compounds. The cells were incubated for 24 hours. 100 μL of Griess reagent were combined with 100 μL portions of cell culture medium and left to incubate at room temperature for 10 minutes. The absorbance at a wavelength of 550 nm was measured using a microplate reader, namely the Spectro Scan 80D UV-VIS spectrophotometer manufactured by Sedico Ltd. in Nicosia, Cyprus. The nitrite concentration was assessed by comparing it to a standard curve of sodium nitrite. A cytotoxicity protocol using SRB was conducted to assess the impact of the test substances under study on RAW 264.7 viability.

[10] = read-out: Trial one (%inhibtion)
[11] = read-out: Trial three (%inhibtion)
[12] = read-out: Trial two (%inhibtion)

SMILES: Cc1ccc(C(=O)c2cc(O)c(O)c([N+](=O)[O-])c2)cc1 [Tolcapone, reference compound]
- inhibition at 3.125 µM [1, 10]: 12.3%
- inhibition at 3.125 µM [1, 11]: 20.4%
- inhibition at 3.125 µM [1, 12]: 19.4%
- inhibition at 6.25 µM [1, 10]: 28%
- inhibition at 6.25 µM [1, 11]: 36.3%
- inhibition at 6.25 µM [1, 12]: 39.7%
- inhibition at 12.5 µM [1, 10]: 54.2%
- inhibition at 12.5 µM [1, 11]: 56.5%
- inhibition at 12.5 µM [1, 12]: 60.9%
- inhibition at 25 µM [1, 10]: 78.1%
- inhibition at 25 µM [1, 11]: 80.9%
- inhibition at 25 µM [1, 12]: 82.1%
- inhibition at 50 µM [1, 10]: 96.1%
- inhibition at 50 µM [1, 11]: 102%
- inhibition at 50 µM [1, 12]: 97.6%
- Maximum (descriptive statistics of enzyme inhibition) [1]: 98.66
- IC50 [1]: 9.6 µM
- Minimum (descriptive statistics of enzyme inhibition) [1]: 17.38
- IC50 [2]: 165 ± 6.58 µM
- IC50 [3]: 86.2 ± 6.6 µM
- IC50 at 72 h [4]: > 200 µM
- IC50 [5]: 62 ± 2.21 µM
- IC50 [6]: 257 ± 37.1 µM
- IC50 [7]: 26.9 ± 0.35 µM
- IC50 [8]: 39.35 ± 0.35 µM
- IC50 [9]: 1.19 ± 0.17 µM

SMILES: C[C@]12CC[C@@H]3c4ccc(O)c(O)c4CC[C@H]3[C@@H]1CC[C@@H]2O [4-hydroxy-estradiol]
- inhibition at 0.09765 µM [1, 10]: 18%
- inhibition at 0.09765 µM [1, 11]: 20.6%
- inhibition at 0.09765 µM [1, 12]: 21.7%
- inhibition at 0.1953 µM [1, 10]: 57.6%
- inhibition at 0.1953 µM [1, 11]: 59.2%
- inhibition at 0.1953 µM [1, 12]: 55.5%
- inhibition at 0.3906 µM [1, 10]: 69.7%
- inhibition at 0.3906 µM [1, 11]: 66%
- inhibition at 0.3906 µM [1, 12]: 67.1%
- inhibition at 0.7812 µM [1, 10]: 80.8%
- inhibition at 0.7812 µM [1, 11]: 81.3%
- inhibition at 0.7812 µM [1, 12]: 82.9%
- inhibition at 1.562 µM [1, 10]: 99.8%
- inhibition at 1.562 µM [1, 11]: 94%
- inhibition at 1.562 µM [1, 12]: 91.4%
- inhibition at 3.125 µM [1, 10]: 93%
- inhibition at 3.125 µM [1, 11]: 95.6%
- inhibition at 3.125 µM [1, 12]: 96.1%
- inhibition at 6.25 µM [1, 10]: 95.6%
- inhibition at 6.25 µM [1, 11]: 96.1%
- inhibition at 6.25 µM [1, 12]: 97.7%
- inhibition at 12.5 µM [1, 10]: 99.8%
- inhibition at 12.5 µM [1, 11]: 99.3%
- inhibition at 12.5 µM [1, 12]: 98.7%
- inhibition at 25 µM [1, 10]: 102%
- inhibition at 25 µM [1, 11]: 104%
- inhibition at 25 µM [1, 12]: 102%
- inhibition at 50 µM [1, 10]: 102%
- inhibition at 50 µM [1, 11]: 101%
- inhibition at 50 µM [1, 12]: 101%
- Maximum (descriptive statistics of enzyme inhibition) [1]: 102.5
- IC50 [1]: 0.22 µM
- Minimum (descriptive statistics of enzyme inhibition) [1]: 20.07
- IC50 [2]: 109 ± 6.86 µM
- IC50 [3]: 124 ± 7.8 µM
- IC50 at 72 h [4]: > 200 µM
- IC50 [5]: 15.2 ± 1.34 µM
- IC50 [6]: 82.2 ± 8.56 µM
- IC50 [7]: 51.5 ± 5.2 µM
- IC50 [8]: 29.8 ± 4.74 µM
- IC50 [9]: 0.25 ± 0.04 µM
